Test results from paper PMC10349806 (Nature Communications, 2023).
“And” between values parts separate entries of the source, which are not always exact repeats. Identical values can stand only once.

Assays:
[1] = test system: PfCRT variant E18A; assay: CQ uptake assay, oocytes expressing E18A; type: cell-based, Plasmodium falciparum
Procedure: (§1) Site-directed mutagenesis of PfCRT^Dd2 was performed as described using the megaprimer method with overlap extension[21],[54]. The primer pairs used are listed in Supplementary Table 6. Please note that a codon-optimized and oocyte-adapted version of PfCRT^Dd2 was used[22] (Supplementary Fig. 16). The resulting DNA fragment was cloned into the SP64T expression vector and verified by sequencing.
(§2) Oocytes were obtained as described previously. Briefly, adult (>2 years old) female X. laevis frogs (NASCO) were anesthetized in a cooled solution of ethyl 3-amino benzoate methanesulfonate (0.1%, w/v), followed by a surgical removal of parts of the ovary. The ovary lobes were carefully dissected and small pieces of oocytes were incubated in Ca^2+-free ND96 buffer (96 mM NaCl, 2 mM KCl, 1 mM MgCl2 buffered with 5 mM HEPES/NaOH, pH 7.5) supplemented with collagenase D (0.1%, w/v; Roche), BSA (0.5%, w/v), and 9 mm Na2HPO4 at 18 °C for 14-16 h while gentle shaking. After incubation, the oocytes were carefully washed several times with ND96 buffer (96 mM NaCl, 2 mM KCl, 1.8 mM CaCl2, 1 mM MgCl2 buffered with 5 mM HEPES/NaOH, pH 7.5) supplemented with 100 mg l^−1 gentamycin). Defolliculated and healthy-looking stage V-VI oocytes were manually selected for RNA microinjection. The RNA was generated as following: The codon-optimized sequences of PfCRT variants were cloned into the pSP64T expression vector. After vector linearization using the restriction endonucleases BamHI or SalI (New England Biolabs), transcription was performed using the in vitro SP6 mMessage mMachine Kit (Ambion)[34]. The obtained RNA was kept at −80 °C and diluted with nuclease-free water to a concentration of 0.6 μg μl^−1. Precision-bore glass capillary tubes (3.5-inch glass capillaries; Drummond Scientific Co.) were pulled on a vertical puller (P-87 Flaming/Brown micropipette puller, Sutter Instrument Co.), graduated, and placed on a microinjector (Nanoject II Auto-Nanoliter Injector, Drummond Scientific Co.). 50 nl of nuclease-free water alone (control oocytes) or 50 nl of 0.6 μg μl^−1 RNA were injected under stereomicroscopic control. Injected oocytes were incubated for 46–72 h at 18 °C with twice-daily buffer changes before usage in experiments.
(§3) Drug uptake assays were performed as described previously[21],[22],[24],[34]. […] The direction of radio-labeled drug transport is here from the mostly acidic extracellular solution (pH 4.5 or 6.0, as indicated) into the oocyte cytosol (pH ∼ 7.2), which corresponds to the efflux of drug from the acidic digestive vacuole (pH 5.2) into the parasite cytoplasm (pH 7.2). The topology of PfCRT in the oolemma is such that both the N- and C-terminus face the extracellular milieu[3],[22]. In the parasite, the N- and C-terminus face the lumen of the digestive vacuole. CQ uptake kinetics were performed by incubating oocytes in ND96 buffer adjusted to a pH of 4.5, 5.0, 5.5, or 6.0 and supplemented with 50 nM [^3H]CQ and one of 7 different CQ concentrations (10 µM, 50 µM, 100 µM, 200 µM, 300 µM, 400 µM, 500 µM CQ). The reaction was stopped at the 60 min time point, which is in the linear uptake range[22],[34] (Supplementary Fig. 17). For determination of the amount of drug uptake for each oocyte, the reaction medium was removed and the oocytes were washed three times with 2 ml of ice-cold ND96 buffer. Each oocyte was individually transferred to a scintillation vial containing 5% sodium dodecyl sulfate (200 μl) for lysis. The radioactivity of each sample was measured using a liquid scintillation analyzer Tri-Carb 4910 TR (PerkinElmer). Oocytes that were injected with water instead of RNA were analyzed in parallel, representing the uptake of a drug by diffusion and/or endogenous permeation pathways. The resulting value represents the “background“ level of drug accumulation in oocytes (in-depth discussion in[22]). […]

[2] = test system: PfCRT variant E207N; assay: CQ uptake assay, oocytes expressing E207N; type: cell-based, Plasmodium falciparum
Procedure: as §1, §2, §3

[3] = biological target: T1, PfCRT variant D311A (Plasmodium falciparum, UniProt Q9N623, A220S/D311A/I356T/K76T/M74I/N326S/N75E/Q271E/R371I); assay: CQ uptake assay, oocytes expressing D311A; type: cell-based
T1 sequence (Q9N623 1-424 M74I/N75E/K76T/A220S/Q271E/D311A/N326S/I356T/R371I): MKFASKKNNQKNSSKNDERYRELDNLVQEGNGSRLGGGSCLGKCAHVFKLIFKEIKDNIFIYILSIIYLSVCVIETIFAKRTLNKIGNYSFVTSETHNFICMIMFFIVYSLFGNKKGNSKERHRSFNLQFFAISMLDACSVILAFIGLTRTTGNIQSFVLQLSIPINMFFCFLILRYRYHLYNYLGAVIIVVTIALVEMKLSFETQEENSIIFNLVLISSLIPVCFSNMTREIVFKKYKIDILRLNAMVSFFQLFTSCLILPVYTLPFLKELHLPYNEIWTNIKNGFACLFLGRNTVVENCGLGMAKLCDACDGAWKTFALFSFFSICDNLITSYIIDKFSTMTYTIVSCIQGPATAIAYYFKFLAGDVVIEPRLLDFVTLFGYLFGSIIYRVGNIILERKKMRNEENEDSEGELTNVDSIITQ
Procedure: as §1, §2, §3

[4] = E18A, 50 µM CQ, 1 h, mean ± SEM
[5] = pH 4.5, single replicates, Fig 1d left
[6] = pH 6.0, single replicates, Fig 1d left
[7] = E207N, 50 µM CQ, 1 h, mean ± SEM
[8] = D311A, 50 µM CQ, 1 h, mean ± SEM

Q: For `CCN(CC)CCCC(C)Nc1ccnc2cc(Cl)ccc12` (stereo not drawn) [CQ, chloroquine], which “Activity at pH 4.5” value [1, 4] is on record?
A: Its value is 1.51 ± 0.34 pmol h-1 oocyte-1.

Q: What about the “Activity at pH 6.0” value [1, 4] of the same molecule?
A: Its value is 2.60 ± 0.53 pmol h-1 oocyte-1.

Q: And the R-value ([1]; E18A, CQ transport at pH 4.5 / pH 6.0)?
A: Its R-value is 0.57 ± 0.06.

Q: What about the “E18A transport activity pH 4.5” value [1, 5] of the same molecule?
A: The value was 2.19 pmol oocyte-1 h-1 and 1.60 pmol oocyte-1 h-1 and 0.74 pmol oocyte-1 h-1.

Q: And the “E18A R-value” ([1]; pH 4.5 vs pH 6.0, Fig 1d left)?
A: Its value is 0.57 and 0.70 and 0.44.

Q: What about the “E18A transport activity pH 6.0” value [1, 6] of the same molecule?
A: The value was 3.85 pmol oocyte-1 h-1 and 2.27 pmol oocyte-1 h-1 and 1.67 pmol oocyte-1 h-1.

Q: What about the “Activity at pH 4.5” value [2, 7] of the same molecule?
A: Its value is 2.54 ± 0.34 pmol h-1 oocyte-1.

Q: And the “Activity at pH 6.0” value [2, 7]?
A: Its value is 2.81 ± 0.43 pmol h-1 oocyte-1.

Q: And the R-value ([2]; E207N, CQ transport at pH 4.5 / pH 6.0)?
A: The R-value was 0.93 ± 0.07.

Q: What about the “E207N transport activity pH 4.5” value ([2]; pH 4.5, individual replicates, Fig 6b) of the same molecule?
A: The value was 3.35 pmol oocyte-1 h-1 and 2.62 pmol oocyte-1 h-1 and 1.45 pmol oocyte-1 h-1 and 2.72 pmol oocyte-1 h-1.

Q: And the “E207N transport activity pH 6.0” value ([2]; pH 6.0, individual replicates, Fig 6b)?
A: The value was 3.09 pmol oocyte-1 h-1 and 3.00 pmol oocyte-1 h-1 and 1.41 pmol oocyte-1 h-1 and 3.72 pmol oocyte-1 h-1.

Q: What about the E207NR-value ([2]; ratio of activity pH 4.5 / pH 6.0) of the same molecule?
A: Its E207NR-value is 1.08 and 0.87 and 1.03 and 0.73.

Q: What about the “Activity at pH 4.5” value [3, 8] of the same molecule?
A: Its value is 1.07 ± 0.25 pmol h-1 oocyte-1.

Q: And the “Activity at pH 6.0” value [3, 8]?
A: Its value is 3.22 ± 0.61 pmol h-1 oocyte-1.

Q: And the R-value ([3]; D311A, CQ transport at pH 4.5 / pH 6.0)?
A: Its R-value is 0.33 ± 0.05.

Q: And the “D311A transport activity pH 4.5” value [3, 5]?
A: Its value is 0.58 pmol oocyte-1 h-1 and 1.64 pmol oocyte-1 h-1 and 0.99 pmol oocyte-1 h-1.

Q: And the “D311A R-value” ([3]; pH 4.5 vs pH 6.0, Fig 1d left)?
A: The value was 0.22 and 0.35 and 0.42.

Q: And the “D311A transport activity pH 6.0” value [3, 6]?
A: Its value is 2.63 pmol oocyte-1 h-1 and 4.69 pmol oocyte-1 h-1 and 2.33 pmol oocyte-1 h-1.
